On the set-up of series [1]: method as in PMID 34037013, PMID 25180889, PMID 28248497. To be noted: based on oxygen uptake; ratio oleic:linoleic:linolenic; ref [25],[26],[27]; cited from earlier work.
A short description of series [2]: Distribution of antioxidants in intact soybean oil-in-water emulsions (16-ArN2+ chemical probe, pseudophase kinetic model). Format: physicochemical. To be noted: for PO^I, partition constant oil-interfacial / PW^I, partition constant water-interfacial / PW^I (app), partition constant water-interfacial: soybean oil-in-water emulsion, Tween 20, T = 25.0 °C; for order of percentage of AO in the interfacial region: at any particular ΦI value. The method, then: Emulsions contain three regions (oil, interface, and aqueous) with distinct solvent properties, and antioxidants are partitioned between them to different extents depending on their hydrophobicity (Figure 4). To prevent disturbance of the existing equilibria, the partition constants were evaluated in the intact emulsions using a well-established chemical method based on the reaction between a chemical probe, 4-hexadecylbenzenediazonium (16-ArN2^+), and the antioxidants. Kinetic results are then analyzed using a pseudophase kinetic model.
The method, along with its assumptions, advantages, and limitations, are described in detail elsewhere; only the relevant parts will be summarized here. 16-ArN2^+ is specifically designed as a water-insoluble chemical probe due to its long hydrophobic tail but with an ionic head group that makes it oil-insoluble. Thus, the reactive (-N2^+) group is located exclusively in the interfacial region. The rate of its reaction with the antioxidant depends on the effective concentration of the antioxidant in that region, which, in turn, depends on its distribution (Figure 4). The partition constants of the antioxidant between the water interfacial (PW^I) and the oil interfacial (PO^I) regions are described by Equations (10) and (11), respectively, where the magnitudes within parenthesis indicate the local concentrations given in moles per liter for a specific region.(10) PWI=(AOI)/(AOW) (11) POI=(AOI)/(AOO)
By employing the formalism of the pseudophase kinetic model, mathematical equations describing the relationships between the measured rate constant (kobs) for the reaction involving 16-ArN2^+ and the AOs and the partition constants can be derived, as was shown in our previous published work. Equation (12) was employed for the AOs, which are distributed between the three regions. Equation (12) can be simplified to Equation (13) for those antioxidants that only partition between the oil and the interfacial regions.(12) kobs=AOTkIPWIPOI/ΦOPWI+ΦIPWIPOI+ΦWPOI (13) kobs=kIAOTPOI/ΦIPOI+ΦO
With the partition constants known, the percentage of AOs at the interface can be determined, and the effective concentration of AOs in each region can be determined straightforwardly by employing Equations (14)–(16).(14) %AOI=100ΦIPWIPOI/ΦOPWI+ΦIPWIPOI+ΦWPOI (15) %AOI=100ΦIPOI/ΦIPOI+ΦO (16) (AOI)=%AOIAOT/ΦI
The application of the pseudophase kinetic model described above requires the determination of the variation in the observed rate constant (kobs) for the reaction between the chemical probe (16ArN2^+) and the antioxidants with the surfactant concentration. Because emulsions are opaque, a special protocol based on a derivatization method has been used to determine the kobs values. Briefly, unreacted arenediazonium ions were rapidly quenched by employing a suitable coupling agent (N-(1-naphthyl)ethylenediammine, NED), leading to the formation of a stable azo dye (Figure 5). The absorbance of the azo dye formed is proportional to the concentration of the unreacted 16ArN2^+ present in the reaction mixture. Further information regarding the experimental procedure is provided in a previous publication.
The kobs values were determined by fitting the absorbance–time data pairs to the pseudo-first-order kinetic equation (Equation (17), where At, A∞, and A0 stand for the absorbance values at time t, infinitive time, and zero time, respectively).(17) lnAt−A∞=lnA0−A∞−kobst
The distribution of the antioxidants in the intact emulsions was assessed through the analysis of the variation in the observed rate constants (kobs) for the reaction between the chemical probe 16-ArN2^+ and the AOs with the emulsifier volume fraction ΦI (Figure 9). Details of this method can be found elsewhere. For all AOs, kobs values decrease asymptotically 3–6 times upon increasing ΦI from ΦI = 0.005 to ΦI = 0.039. […]

Series [3] can be described thus: Kinetics of lipid oxidation (conjugated dienes, AOCS Ti 1a 64) in soybean oil-in-water emulsions. To be noted: T = 60 °C; for relative efficiency order in inhibiting lipid peroxidation: 1:9 O/W emulsion, time to 0.5% increase in conjugated dienes; for relative efficiency order in inhibiting lipid peroxidation / effect of addition of HPCD on oxidative stability of the emulsion loaded with the antioxidant: ΦI = 0.008, [AO] = 0.1 mM. The method, then:
The 1:9 oil-in-water emulsions were prepared by mixing 1 mL of stripped soybean oil and 9 mL of buffered aqueous solution (citric–citrate buffer 0.04 M pH 3.0) and different amounts of the surfactant Tween 20 (ΦI = Vsurfactant/Vemulsion = 0.005 − 0.04). Emulsions prepared without antioxidants were used as controls. In the others, the antioxidants GA, PG, OG, and LG were added to the aqueous (GA, PG) or oil (OG, LG) phases. The mixtures were stirred for at least 60 s at 20000 rpm at room temperature by employing a high-speed rotor (Polytron PT 1600 E, Kinematica, Fisher Scientific S.L., Madrid, Spain). All emulsions were prepared in triplicate and reported values are average.
The kinetics of the lipid peroxidation of soybean oil-in-water emulsions were monitored by determining the variation in the formation of conjugated dienes (CDs) with time according to the AOCS Official Method Ti 1a 64 in both the absence (control) and the presence of antioxidants (stoichiometric [AO] = 10^−4 M). Briefly, 1:9 O/W emulsions (ΦI = 0.008) were transferred to 25 mL screw-capped erlenmeyer flasks and were placed in an orbital shaker (Incubator Heidolph 1000 orbital stirrer, Heidolph Scientific Products GmbH, Schwabach, Germany) equipped with a Heidolph thermostat 1010 to the control temperature at 148 rpm and T = 60 °C (±1 °C) in the dark.
Aliquots (25 µL) of the emulsions were removed periodically and diluted to 10 mL with 2-propanol, and the absorbance was measured at λ = 233 nm. The percentage of conjugated dienes (%CD) was determined, as described in the literature, by employing Equation (18), where Coil stands for the concentration of soybean oil in the total volume of the emulsion (density for soybean oil = 0.93 g/mL; T = 25 °C).(18) %CD=1.0769A233nm/Coil(g/L)
The relative efficiency of the antioxidants under the different experimental conditions was quantified by measuring the time needed to increase the CD content by 0.5% (dashed line in Figure 7). We have previously shown that these values are equal to those for the induction period determined from the intersection point of the two linear segments defining the inhibited and uninhibited (propagation) steps [28].

Series [4] in a line: Water solubility (statement). Format: physicochemical.
A short description of series [5]: DPPH radical scavenging activity of gallates in absence and presence of HPCD. Format: biochemical. The following applies: values given as 10^6 × EC50, T = 25 ± 1 °C, reaction time 3600 s, aqueous citric acid/citrate (0.04 M, pH 3)-methanol 50:50 v/v. The method, then: The radical scavenging activity of gallates was obtained by employing the free radical 2,2-diphenyl-1-pycrilhydrazyl DPPH^• and by following the method described by García-Perez et al.. The absorbance decrease in DPPH^• (λ= 515 nm) was monitored in the absence and the presence of CD for different concentrations of AOs ([AO] = […]) in an aqueous–methanolic solution (5:5, v/v) at T = 25 °C. […] The radical scavenging activity was measured in terms of the EC50 values, defined as the gallate concentration required to decrease DPPH^• radicals by half.
Background: Loss of DPPH colour is used to gauge radical scavenging.

Series [6] in a line: Partition constant in soybean oil-water binary mixtures. Format: physicochemical. The following applies: T = 25.0 °C. The method, then: Table 2 Partition constants values in soybean oil–water binary mixtures (PW^O) and in soybean oil-in-water emulsions (PW^I and PO^I) for gallates in the absence and the presence of HP-CD; T = 25.0 °C.

The text below walks through data of publication PMC12292233, “Effects of 2-Hydroxypropyl-β-Cyclodextrin on the Antioxidant Efficiency of Some Gallic Acid Derivatives in Soybean Oil-in-Water Emulsions” (Antioxidants, 2025).

As for `CCCCCCCC/C=C\CCCCCCCC(=O)O` [oleic, oleic acid], in series [1], the relative oxidation rate result is reported as “approximately 1”.
For the molecule `CCCCC/C=C\C/C=C\CCCCCCCC(=O)O` [linoleic, linoleic acid], the relative oxidation rate in series [1] is on record as roughly 70.
On to `CCCCCCCCCCCCOC(=O)c1cc(O)c(O)c(O)c1` [LG, lauryl gallate], for which the “PO^I, partition constant oil-interfacial” value in series [2] ([HPCD] = 0) is 27 ± 9; in series [2] ([HPCD] = 0.013 M) it was 25 ± 2. For the same molecule, the “order of percentage of AO in the interfacial region” value (shortened to “order of percentage of AO”) in series [2] was “%BGI > %PGI > %LGI ≈ %OGI”. In addition, in series [3], the “relative efficiency order in inhibiting lipid peroxidation” value is on record as “LG ≈ OG < PG < < BG”. For the same molecule, the “effect of addition of HPCD on oxidative stability of the emulsion loaded with the antioxidant” value (“effect of addition of HPCD” below) in series [3] ([HP-CD] = 0.013 M) is recorded as “negligible effect”. In addition, the solubility in water entry in series [4] is reported as “water insoluble”.
With `CC/C=C\C/C=C\C/C=C\CCCCCCCC(=O)O` [linolenic, linolenic acid], the relative oxidation rate in series [1] was roughly 100.
Regarding `CCCOC(=O)c1cc(O)c(O)c(O)c1` [PG, Propyl gallate], the figures for the EC50 in series [5] (0 M HPCD) and in series [5] (1.1·10^−2 M HPCD) were 6.09 ± 0.12 µM and 5.57 ± 0.01 µM, respectively. In addition, the “PW^O, partition constant” value in series [6] was determined as 0.85 ± 0.01. The figures for the “PO^I, partition constant oil-interfacial” value in series [2] ([HPCD] = 0) and in series [2] ([HPCD] = 0.013 M) were 450 ± 26 and 371 ± 15, respectively. Besides, in series [2] ([HPCD] = 0), the “PW^I, partition constant water-interfacial” value is 382 ± 18. In addition, the “PW^I (app), partition constant water-interfacial” value in series [2] ([HPCD] = 0.013 M) is 315 ± 14. The “order of percentage of AO” value in series [2] was “%BGI > %PGI > %LGI ≈ %OGI”. The “relative efficiency order in inhibiting lipid peroxidation” value in series [3] is “LG ≈ OG < PG < < BG”. Besides, in series [3] ([HP-CD] = 0.013 M), the “effect of addition of HPCD” value is on record as “decreases the oxidative stability slightly”.
As to `O=C(O)c1cc(O)c(O)c(O)c1` [GA, gallic acid], the results for the EC50 in series [5] (0 M HPCD) and in series [5] (1.1·10^−2 M HPCD) were 8.36 ± 0.28 µM and 7.84 ± 0.08 µM, respectively.
Turning to `CCCCOC(=O)c1cc(O)c(O)c(O)c1` [BG, butyl gallate], the concentration giving a half-maximal response (EC50) in series [5] (0 M HPCD) came to 6.02 ± 0.03 µM; in series [5] (1.1·10^−2 M HPCD), 5.35 ± 0.04 µM. The “PW^O, partition constant” value in series [6] was found to be 3.25 ± 0.03. For the same molecule, the entries for the “PO^I, partition constant oil-interfacial” value in series [2] ([HPCD] = 0) and in series [2] ([HPCD] = 0.013 M) were 238 ± 8 and 174 ± 9, respectively. Further, in series [2] ([HPCD] = 0), the “PW^I, partition constant water-interfacial” value was determined as 772 ± 33. For the same molecule, the “PW^I (app), partition constant water-interfacial” value in series [2] ([HPCD] = 0.013 M) worked out at 565 ± 9. Also, the “order of percentage of AO” value in series [2] is given as “%BGI > %PGI > %LGI ≈ %OGI”. Also, the “relative efficiency order in inhibiting lipid peroxidation” value in series [3] was “LG ≈ OG < PG < < BG”; in series [3] (listed as butyl gallate) it was “highest antioxidant efficiency”. Further, the “effect of addition of HPCD” value in series [3] ([HP-CD] = 0.013 M) is “decreases the oxidative stability slightly”.
For the molecule 2-Hydroxypropyl-β-cyclodextrin [HPCD], in series [3] (1:9 soybean emulsions without antioxidant, [HP-CD] = 0.013 M), the “effect on the kinetics of oxidation in absence of antioxidants” value was “no effect”.
Turning to `CCCCCCCCOC(=O)c1cc(O)c(O)c(O)c1` [OG, octyl gallate], the EC50 came out at 9.02 ± 1.05 µM in series [5] (0 M HPCD) and 8.27 ± 0.2 µM in series [5] (1.1·10^−2 M HPCD). Besides, the entries for the “PO^I, partition constant oil-interfacial” value in series [2] ([HPCD] = 0) and in series [2] ([HPCD] = 0.013 M) were 26 ± 7 and 25 ± 5, respectively. The “order of percentage of AO” value in series [2] is “%BGI > %PGI > %LGI ≈ %OGI”. Also, the “relative efficiency order in inhibiting lipid peroxidation” value in series [3] is recorded as “LG ≈ OG < PG < < BG”. In addition, the “effect of addition of HPCD” value in series [3] ([HP-CD] = 0.013 M) is “negligible effect”. The solubility in water result in series [4] is “water insoluble”.

As a reminder, the EC50 is the concentration giving half of the maximal effect.
